This is an account of results in patent US20260294863A1, “METHOD OF TREATING FIBROTIC-RELATED CONDITION” (YISSUM RESEARCH DEVELOPMENT COMPANY OF THE HEBREW …, priority 2023, published 2026).

Structures are written as SMILES.

The subject of experiment [1] is EGR1. The experiment is described as follows: Nuclear levels of EGR1 in microglia activated by BzATP and LPS. The experiment is classed as cell-based, Balb/C mice. The method, then:
(§1) Experiments were performed on primary microglial cells isolated from brains of neonatal Balb/C mice as previously described (Reichert and Rotshenker, 2003). The brains were stripped of their meninges and enzymatically dissociated. Cells were plated on Poly-L-lysine coated flasks for one week, re-plated for 1- to 2-hr on bacteriological plates and non-adherent cells were washed away. Microglia were propagated by incubation in 20% of medium, conditioned by the L-cell line that produces mouse-CSF. They were identified by morphology and positive immune-reactivity to P2y12, F4/80, complement receptor-3 and Galectin-3/MAC-2 (Reichert and Rotshenker 2003; Gitik et al. 2011).
The addition of BzATP/LPS to microglia increased cytoplasmic levels of TNFαIP3 protein and nuclear ERGR1 protein.

A short description of experiment [2]: Body weight in bleomycin-induced lung fibrosis. The experiment is classed as in vivo, C57BL/6JOlaHsd mice. To be noted: bleomycin lung fibrosis. On the procedure: (§2) The animal model of bleomycin-induced lung fibrosis is widely used to characterize the potential inhibitory effect of newly developed drugs (Distler et al. 2019). Experiments were performed in C57BL/6JOlaHsd male and female mice aged 12-13 weeks. Male mice weighed 23-27.3 g and female mice, 19.4-21.1 g. They were housed under pathogen-free conditions, up to 6 per cage, in IVC cages under a controlled temperature of 22-24° C., humidity and alternating 12-h light/dark cycles and provided with food and water ad libitum. In order to minimize the stress of daily injection, ladostigil (5 mg/Kg/day) was administered by micro-osmotic pumps, implanted subcutaneously under ketamine/xylazine anesthesia, 5 days before administration of bleomycin, and delivered for 3 weeks to mice of each sex. Saline (2-3/sex) and bleomycin controls were anesthetized as described above. Bleomycin solution (0.25 mg/kg in 50 μl) was instilled into the lumen of the trachea as shown in a video by Ehrentraut et al. (2019). […] Mice were weighed daily and sacrificed on day 21. Bronchial fluid was collected as described in Ehrentraut et al. (2019). TNFα and IL-6 in the bronchial fluid lavage was measured by ELISA as described in the preceding section.
Experiments were performed in C57BL/6JOlaHsd male mice aged 12-13 weeks as described for ladostigil. AN1284 (2.5 mg/kg/day) was administered by micro-osmotic pumps, implanted subcutaneously under ketamine/xylazine anesthesia, 5 days before administration of bleomycin and delivered for 3 weeks. Mice were weighed daily, sacrificed on day 21 and bronchial fluid was collected. Fibrosis was measured by staining with Sirius red as described for ladostigil. TNFα and IL-6 in the bronchial fluid lavage was measured by ELISA as described for ladostigil.

Experiment [3] concerns BzATP/LPS-activated microglia. In words: Gene expression (RNA-seq) in BzATP/LPS-activated microglia. Conditions: 1×10^−10 M, 8 hrs after BzATP/LPS. The class given is cell-based, Balb/C mice. The method, then:
as §1
Ladostigil (1×10^−10 M) was added to microglia for 2 hrs before BzATP/LPS. Cells were harvested before and 8 hr after addition of BzATP/LPS. Total RNA was extracted using the RNeasy Plus Universal Mini Kit (QIAGEN) according to the manufacturer's protocol. Total RNA samples (1 μg RNA) were enriched for mRNAs by pull-down of poly A. Libraries were prepared using the KAPA Stranded mRNA-Seq Kit according to the manufacturer's protocol and sequenced using Illumina NextSeq 500 to generate 85 bp single-end reads (total 25-30 million reads per sample) as described in Zohar et al. (2021).
Next-generation sequencing data underwent quality control using FastQC. They were then preprocessed using Trimmomatic (Bolger et al. 2014) and aligned to the reference genome GRCm38 with the STAR aligner (Dobin et al. 2013) using default parameters. Genomic loci were annotated using GENCODE version M25 (Frankish et al. 2019). Genes with low expression were filtered out of the dataset by setting a threshold of a minimum of 2 counts-per-million in three samples.
Pair-wise differential analyses were performed between all […] BzATP/LPS time points and genes with an FDR <0.01 were considered.

The subject of experiment [4] is IL1β. In words: Secretion of IL1β from BzATP/LPS-activated microglia (ELISA). The class given is cell-based, Balb/C mice. The method, then: as §1
Cytokines were measured as previously described (Shamash et al. 2002) using ELISA Max deluxe set (Biolegend, CA, USA) for secreted TNFα and IL-6 proteins and ELISA DuoSet (R&D systems, UK) for secreted and cell associated IL-1β, according to manufacturer's instructions.
The effect of ladostigil at concentrations of 1×10^−13 M to 1×10^−9 M on the secretion of cytokine proteins was assessed by adding it to microglia for 2 hr before LPS (0.75 μg/ml) and BzATP (400 μM). Other microglia were treated similarly with the steroid, budesonide as a reference standard at concentrations of 1× 10^−13 to 1× 10^−11 M. Measurements of cytokine secretion were performed 8 hrs after addition of LPS and BzATP. Since the levels of secreted IL-1β were still low, samples were concentrated 2- to 4-fold by an Amicon ultra-centrifugal filter device (Merck-Millipore, Ireland). ELISA was used to quantify the levels of cytokine proteins. Protein content in the microglia lysate was measured by Bradford and levels of cytokines were calculated and presented as pg/μg of microglial protein.
Background: An ELISA detects its analyte on a solid surface through an enzyme-linked reagent.

A short description of experiment [5]: Mortality in bleomycin-induced lung fibrosis. The experiment is classed as in vivo, C57BL/6JOlaHsd mice. The method, then: as §2, with “In order to minimize the stress of daily injection, ladostigil (5 mg/Kg/day) was administered by micro-osmotic pumps, implanted subcutaneously under ketamine/xylazine anesthesia, 5 days before administration of bleomycin, and delivered for 3 weeks to mice of each sex.” left out

As a reminder, the mortality is the percentage killed. A higher mortality goes with fewer survivors. In the case of `C#CCN[C@@H]1CCc2ccc(OC(=O)N(C)CC)cc21` [Ladostigil, 6-(N-ethyl, N-methylcarbamyloxy)-N propargyl-1 (R)-aminoindan hemitartrate], the “Mean percent of nuclei with positive EGR1 protein immunoreactivity ± SEM” value in experiment [1] (BzATP/LPS, ladostigil 1×10^−10 M, Medium 19.0 ± 4.2) is 56.0 ± 3.9%. Also, in experiment [1] (microglia, ladostigil 1×10^−10 M on top of BzATP/LPS), the “change in nuclear EGR1 protein” value is “decreased”. For the same compound, the body weight loss entry in experiment [2] (females, 5 and 10 mg/kg) is reported as “significantly reduced weight loss”. The body weight loss result in experiment [2] (males, only at 10 mg/kg) is listed as “significantly reduced weight loss”. In experiment [3], the Egr1 gene expression entry is reported as “downregulated”, the Egr2 gene expression entry is recorded as “downregulated”, the Mmp12 gene expression entry is listed as “downregulated” and the “TNFαIP3 (A20) gene expression” value is reported as “up-regulated”. Also, in experiment [3], the Timp1 gene expression entry is listed as “downregulated” and the “number of genes significantly altered in expression” value turned out to be 25 genes. Further, the Emax in experiment [4] (Mus musculus, Microglia, 8 h, 1×10^−11-1×10^−9 M, read-out: maximal reduction of IL1β) was around 50%. Also, the minimal effective concentration in experiment [4] (Mus musculus, microglia, BzATP/LPS, medium containing BSA, 8 hrs, read-out: lowest concentration that significantly decreased IL1β secretion) turned out to be 1e-06 µM. For the same compound, in experiment [4] (all concentrations tested, added 2 hrs before BzATP and LPS, 0.1% BSA, p<0.01), the “reduction of IL1β release” value is given as “reduced the 3 cytokines significantly”. Also, the “reduction of IL1β compared with reduction of TNFα” value in experiment [4] (ladostigil 1×10^−9 M, budesonide 1×10^−11 M) is reported as “greater than that of TNFα”. The compound further yielded a mortality in experiment [5] (females, ladostigil+bleomycin, 2.5 mg/kg (2/10)) of 20%. For the same compound, in experiment [5] (females, ladostigil+bleomycin, 5 mg/kg (1/20)), the mortality is 5%. The “mortality (animals died/total)” value in experiment [5] (females, ladostigil+bleomycin, dose not given) is on record as 1/11. The compound further showed a mortality in experiment [5] (males, bleomycin+ladostigil 5 mg/kg, day 17 (2/9)) of 22%. Moreover, the mortality in experiment [5] (males, ladostigil 10 mg/kg, day 17 (1/11)) amounted to 9%.
